The target in this experiment is T1, pancreatic lipase (Sus scrofa, UniProt P00591).
T1 sequence (P00591 1-450): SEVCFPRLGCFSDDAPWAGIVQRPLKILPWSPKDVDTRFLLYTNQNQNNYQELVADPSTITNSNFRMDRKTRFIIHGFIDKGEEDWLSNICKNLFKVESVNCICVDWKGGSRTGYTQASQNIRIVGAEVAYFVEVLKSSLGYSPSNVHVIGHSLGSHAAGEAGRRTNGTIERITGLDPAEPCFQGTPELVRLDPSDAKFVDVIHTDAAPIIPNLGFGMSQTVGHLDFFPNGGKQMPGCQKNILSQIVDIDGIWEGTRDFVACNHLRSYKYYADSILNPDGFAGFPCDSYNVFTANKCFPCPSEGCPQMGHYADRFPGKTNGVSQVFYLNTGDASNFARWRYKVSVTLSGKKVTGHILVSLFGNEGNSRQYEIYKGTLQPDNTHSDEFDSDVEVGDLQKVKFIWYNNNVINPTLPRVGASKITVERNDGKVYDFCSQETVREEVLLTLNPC
As to the kind of experiment: pancreatic lipase inhibition assay. The experiment is classed as biochemical.
The compound `Cc1cc(O)cc2oc(=O)c3c(O)cc(O)cc3c12` [Compound 5, alternariol] registered an IC50 of 56.8 ± 0.77 µM.

`COc1cc(O)c2c(c1)C1(OC2=O)C(C)=CC(=O)C1O` (stereo not drawn) [Compound 1, talaroflavone] had a 50% inhibitory concentration (IC50) of 73.8 ± 0.82 µM.

`COc1cc(O)c(C(=O)O)c(-c2cc(O)c(O)cc2C)c1` [Compound 4, altenusin] showed an IC50 of 21.5 ± 0.97 µM.

The values are drawn from PMC9434606 (RSC Advances, 2022).
